{"source": "paper PMC8741970", "about": "“Ablation of VLA4 in multiple myeloma cells redirects tumor spread and prolongs survival” (Scientific Reports, 2022)", "key": {"[1]": {"molecular_target": "activated VLA4 on CD138+CD38+ MM PCs (Homo sapiens, UniProt P05556+P13612)", "sequence (P13612 34-1032)": "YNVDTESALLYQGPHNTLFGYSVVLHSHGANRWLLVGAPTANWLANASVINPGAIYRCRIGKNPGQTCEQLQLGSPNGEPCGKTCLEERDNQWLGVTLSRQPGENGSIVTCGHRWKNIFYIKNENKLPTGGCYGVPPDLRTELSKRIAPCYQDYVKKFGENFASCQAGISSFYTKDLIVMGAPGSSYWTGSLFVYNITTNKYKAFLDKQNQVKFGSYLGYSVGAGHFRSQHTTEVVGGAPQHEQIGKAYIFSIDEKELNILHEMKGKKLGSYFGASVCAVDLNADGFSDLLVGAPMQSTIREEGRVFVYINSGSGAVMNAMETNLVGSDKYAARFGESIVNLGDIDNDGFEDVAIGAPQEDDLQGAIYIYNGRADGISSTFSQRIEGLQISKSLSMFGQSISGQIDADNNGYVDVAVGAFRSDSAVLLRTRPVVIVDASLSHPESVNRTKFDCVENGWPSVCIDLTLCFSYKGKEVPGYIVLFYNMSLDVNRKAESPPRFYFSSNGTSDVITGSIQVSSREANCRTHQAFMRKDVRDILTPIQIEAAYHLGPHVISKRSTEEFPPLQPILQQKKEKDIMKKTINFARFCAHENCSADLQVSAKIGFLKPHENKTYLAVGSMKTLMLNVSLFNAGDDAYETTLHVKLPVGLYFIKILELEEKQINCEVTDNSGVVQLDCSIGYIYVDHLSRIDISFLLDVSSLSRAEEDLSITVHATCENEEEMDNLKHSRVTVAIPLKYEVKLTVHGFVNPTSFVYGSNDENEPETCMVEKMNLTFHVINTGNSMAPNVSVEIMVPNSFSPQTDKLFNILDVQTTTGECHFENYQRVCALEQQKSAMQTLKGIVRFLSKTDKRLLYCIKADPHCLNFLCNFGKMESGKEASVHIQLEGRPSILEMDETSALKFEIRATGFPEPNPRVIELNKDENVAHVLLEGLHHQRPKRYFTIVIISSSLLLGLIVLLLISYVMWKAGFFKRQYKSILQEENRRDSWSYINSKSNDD", "sequence (P05556 21-798)": "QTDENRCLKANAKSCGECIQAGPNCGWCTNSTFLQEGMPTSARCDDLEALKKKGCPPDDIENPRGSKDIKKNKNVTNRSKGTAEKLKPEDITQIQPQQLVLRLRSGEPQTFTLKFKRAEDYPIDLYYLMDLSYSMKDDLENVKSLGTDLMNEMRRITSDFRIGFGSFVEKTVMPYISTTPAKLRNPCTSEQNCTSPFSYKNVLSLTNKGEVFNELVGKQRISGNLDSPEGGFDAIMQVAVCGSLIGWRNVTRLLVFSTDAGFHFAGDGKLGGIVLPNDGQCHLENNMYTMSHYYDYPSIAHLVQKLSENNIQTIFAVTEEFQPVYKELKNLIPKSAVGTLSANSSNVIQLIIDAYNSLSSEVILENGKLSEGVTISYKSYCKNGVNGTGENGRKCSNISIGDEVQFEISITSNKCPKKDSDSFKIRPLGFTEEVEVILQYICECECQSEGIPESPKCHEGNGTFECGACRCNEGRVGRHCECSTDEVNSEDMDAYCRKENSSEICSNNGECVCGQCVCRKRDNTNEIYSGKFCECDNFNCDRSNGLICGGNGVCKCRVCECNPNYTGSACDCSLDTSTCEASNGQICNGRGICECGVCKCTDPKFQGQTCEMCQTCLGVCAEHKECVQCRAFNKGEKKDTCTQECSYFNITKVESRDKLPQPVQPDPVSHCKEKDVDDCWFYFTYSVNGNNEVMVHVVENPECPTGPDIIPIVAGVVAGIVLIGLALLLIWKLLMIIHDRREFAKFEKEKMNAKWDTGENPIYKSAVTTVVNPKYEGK", "details": "nineteen de-identified BM samples from myeloma patients (13/19); HBSS with Ca2+, Mg2+, 0.1% BSA", "protocol": "[…] The human and mouse FC receptors were blocked by human BD Fc block and mouse BD Fc block, respectively. The cell suspension was incubated with fluorochrome-conjugated monoclonal antibodies in dark, at room temperature, for 30 min. Cells were washed twice with buffer afterward, and then proceeded analysis on a Beckman Coulter Gallios flow cytometer. The dead cells were excluded by using 7-amino-actinonycin D (7-AAD). The data were analyzed on FlowJo software. The appropriate isotype antibodies were used as controls."}, "monocytes": {"tested_on": "monocytes", "experiment": "Binding studies with MM patient BM samples, monocytes", "set-up": "species or system human", "protocol": "(§1) Purified cells were > 97% for CD38 + CD138 + plasma cells.\n(§2) The data were analyzed on FlowJo software. The appropriate isotype antibodies were used as controls."}, "activated VLA4 on H929": {"molecular_target": "activated VLA4 on H929 (Homo sapiens, UniProt P05556+P13612)", "sequence (P13612 34-1032)": "as the sequence (P13612 34-1032) above", "sequence (P05556 21-798)": "as the sequence (P05556 21-798) above", "details": "H929, flow cytometry", "protocol": "(§3) The single cells were suspended in phosphate-buffered saline (PBS) with 0.1% bovine serum albumin as buffer. The human and mouse FC receptors were blocked by human BD Fc block and mouse BD Fc block, respectively. The cell suspension was incubated with fluorochrome-conjugated monoclonal antibodies in dark, at room temperature, for 30 min. Cells were washed twice with buffer afterward, and then proceeded analysis on a Beckman Coulter Gallios flow cytometer. The dead cells were excluded by using 7-amino-actinonycin D (7-AAD). The data were analyzed on FlowJo software. The appropriate isotype antibodies were used as controls."}, "activated VLA4 on MM1.S": {"molecular_target": "activated VLA4 on MM1.S (Homo sapiens, UniProt P05556+P13612)", "sequence (P13612 34-1032)": "as the sequence (P13612 34-1032) above", "sequence (P05556 21-798)": "as the sequence (P05556 21-798) above", "details": "flow cytometry", "protocol": "as §3"}, "activated VLA4 on 5TGM1": {"molecular_target": "activated VLA4 on 5TGM1 (Mus musculus, UniProt P09055+Q00651)", "sequence (Q00651 34-1039 limits assumed)": "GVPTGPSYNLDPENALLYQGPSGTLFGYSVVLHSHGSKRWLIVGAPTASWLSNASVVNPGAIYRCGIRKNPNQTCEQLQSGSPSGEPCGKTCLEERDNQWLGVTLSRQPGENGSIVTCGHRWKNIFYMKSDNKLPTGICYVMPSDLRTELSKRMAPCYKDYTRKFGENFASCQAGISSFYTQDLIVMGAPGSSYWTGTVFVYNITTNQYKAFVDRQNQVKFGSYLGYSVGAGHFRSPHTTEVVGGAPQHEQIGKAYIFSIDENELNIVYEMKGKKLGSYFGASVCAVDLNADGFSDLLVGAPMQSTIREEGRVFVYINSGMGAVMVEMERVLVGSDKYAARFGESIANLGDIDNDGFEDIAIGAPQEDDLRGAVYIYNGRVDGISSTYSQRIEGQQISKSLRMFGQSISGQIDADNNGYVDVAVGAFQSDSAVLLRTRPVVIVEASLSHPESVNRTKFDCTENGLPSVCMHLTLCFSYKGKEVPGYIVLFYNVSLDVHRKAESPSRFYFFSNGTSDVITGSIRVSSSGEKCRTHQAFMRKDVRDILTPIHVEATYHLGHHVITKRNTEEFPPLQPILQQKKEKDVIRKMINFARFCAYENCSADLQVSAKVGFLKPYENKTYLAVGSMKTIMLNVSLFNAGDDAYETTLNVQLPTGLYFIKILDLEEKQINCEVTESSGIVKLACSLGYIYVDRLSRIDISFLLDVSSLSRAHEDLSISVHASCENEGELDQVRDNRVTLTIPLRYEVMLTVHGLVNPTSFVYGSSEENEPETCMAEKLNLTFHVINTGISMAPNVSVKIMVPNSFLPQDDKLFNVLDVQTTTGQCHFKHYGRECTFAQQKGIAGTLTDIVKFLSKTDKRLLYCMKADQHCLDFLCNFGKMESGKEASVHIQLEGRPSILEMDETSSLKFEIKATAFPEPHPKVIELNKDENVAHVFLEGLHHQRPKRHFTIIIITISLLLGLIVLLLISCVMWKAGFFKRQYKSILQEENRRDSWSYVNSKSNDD", "sequence (P09055 21-798)": "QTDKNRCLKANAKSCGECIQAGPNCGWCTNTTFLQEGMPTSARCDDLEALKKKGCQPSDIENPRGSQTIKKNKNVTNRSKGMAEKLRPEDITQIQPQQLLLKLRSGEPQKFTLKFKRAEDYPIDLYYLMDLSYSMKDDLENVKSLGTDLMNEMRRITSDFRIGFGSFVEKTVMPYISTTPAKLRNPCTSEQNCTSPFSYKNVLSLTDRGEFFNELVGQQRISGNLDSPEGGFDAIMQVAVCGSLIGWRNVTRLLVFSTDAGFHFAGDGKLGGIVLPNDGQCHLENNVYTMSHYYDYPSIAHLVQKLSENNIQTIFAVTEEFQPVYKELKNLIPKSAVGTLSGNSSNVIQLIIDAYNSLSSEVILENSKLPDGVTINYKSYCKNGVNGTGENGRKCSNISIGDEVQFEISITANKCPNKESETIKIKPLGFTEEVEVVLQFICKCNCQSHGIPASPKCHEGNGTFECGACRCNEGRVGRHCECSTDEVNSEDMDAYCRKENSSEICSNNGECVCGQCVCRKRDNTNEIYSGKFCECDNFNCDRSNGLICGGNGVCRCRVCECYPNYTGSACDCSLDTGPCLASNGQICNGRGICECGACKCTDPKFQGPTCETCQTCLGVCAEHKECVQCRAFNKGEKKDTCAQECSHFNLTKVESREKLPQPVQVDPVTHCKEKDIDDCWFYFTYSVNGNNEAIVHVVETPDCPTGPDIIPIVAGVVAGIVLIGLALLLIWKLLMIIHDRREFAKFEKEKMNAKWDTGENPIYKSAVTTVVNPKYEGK", "details": "5TGM1, flow cytometry", "protocol": "as §3"}, "[2]": {"molecular_target": "activated VLA4 on RPMI-8226 (Homo sapiens, UniProt P05556+P13612)", "sequence (P13612 34-1032)": "as the sequence (P13612 34-1032) above", "sequence (P05556 21-798)": "as the sequence (P05556 21-798) above", "details": "RPMI-8226, flow cytometry", "protocol": "as §3"}, "activated VLA4 on U266": {"molecular_target": "activated VLA4 on U266 (Homo sapiens, UniProt P05556+P13612)", "sequence (P13612 34-1032)": "as the sequence (P13612 34-1032) above", "sequence (P05556 21-798)": "as the sequence (P05556 21-798) above", "details": "U266, flow cytometry", "protocol": "as §3"}, "activated VLA4 on OPM2": {"molecular_target": "activated VLA4 on OPM2 (Homo sapiens, UniProt P05556+P13612)", "sequence (P13612 34-1032)": "as the sequence (P13612 34-1032) above", "sequence (P05556 21-798)": "as the sequence (P05556 21-798) above", "details": "OPM2, flow cytometry", "protocol": "as §3"}, "VLA4 KO 5TGM1-GFP cells": {"tested_on": "VLA4 KO 5TGM1-GFP cells", "experiment": "Flow cytometry binding to Itga4 KO 5TGM1-GFP cells", "set-up": "species or system murine", "details": "for binding to KO cells (flow cytometry gate): 1.5 × 10^5 Itga4 KO 5TGM1-GFP cells, no BIO5192; for binding to KO cells after pre-incubation with BIO5192: Itga4 KO 5TGM1-GFP cells, pre-incubation with an established therapeutic dose of BIO5192", "protocol": "as §3"}, "[3]": {"tested_on": "VLA4 expressing cells in BM and spleen of 5TGM1-GFP tumor mice", "experiment": "FACS of ex vivo tissue samples after LLP2A-Cy5 injection", "format": "in vivo, mouse", "details": "after i.v. LLP2A-Cy5", "protocol": "as §2\n(§4) [picture] Supplementary Figure 4. […] In vivo 3D fluorescence imaging was performed on IVIS Spectrum CT (PerkinElmer, Waltham, MA) with auto-exposure settings in the GFP wavelength (Ex./Em. 480nm/520nm) filter pair. […] GFP^+ cells were co-stained with PE-conjugated anti-mouse CD49d and eFluor450-conjugated anti-mouse CD29 antibodies (middle; Thermo Fisher Scientific) to identify VLA4^+ cells."}, "B-lymphocytes": {"tested_on": "B-lymphocytes", "experiment": "Binding studies with MM patient BM samples, B-lymphocytes", "set-up": "species or system human", "protocol": "as §1, §2"}, "[4]": {"molecular_target": "T1, VLA4 on WT 5TGM1-GFP cells (Mus musculus, UniProt P09055+Q00651)", "T1 construct": "endogenous in cells; host or cells: WT 5TGM1-GFP murine myeloma cells", "T1 sequence (Q00651 34-1039 limits assumed)": "as the sequence (Q00651 34-1039 limits assumed) above", "T1 sequence (P09055 21-798)": "as the sequence (P09055 21-798) above", "experiment": "Flow cytometry binding to WT 5TGM1-GFP cells", "set-up": "species or system murine", "details": "for binding to WT cells (flow cytometry gate): 1.5 × 10^5 WT 5TGM1-GFP cells, no BIO5192; for binding to WT cells after pre-incubation with BIO5192: WT 5TGM1-GFP cells, pre-incubation with an established therapeutic dose of BIO5192", "protocol": "as §3"}, "T-lymphocytes": {"tested_on": "T-lymphocytes", "experiment": "Binding studies with MM patient BM samples, T-lymphocytes", "set-up": "species or system human", "protocol": "as §1, §2"}, "[5]": {"molecular_target": "activated VLA4 on the surface of the 5TGM1-GFP murine myeloma cells (Mus musculus, UniProt P09055+Q00651)", "sequence (Q00651 34-1039 limits assumed)": "as the sequence (Q00651 34-1039 limits assumed) above", "sequence (P09055 21-798)": "as the sequence (P09055 21-798) above", "experiment": "Confocal microscopy of cell surface binding and internalization of Cy5-labelled probes", "details": "WT 5TGM1-GFP cells", "procedure": "Blue, green and red colors represent nuclear stain, GFP, and Cy5 signal, respectively in all images (60x; scale bar: 20 µm). […] BIO5192 (100 nM) was used to evaluate non-specific binding.\nWT 5TGM1-GFP cells were plated on 35 mm glass bottom MatTek dishes pre-coated with poly-D-lysine (glass no. 1.5; MatTek Corporation, MA) at 10^5 cells/cm^2 and allowed to attach for 1 h at 37 °C. Cells were incubated with the Cy5-labelled probes (1 µM) at 4 °C for 15 min, and at 37 °C for 2.5 h to assess cell surface binding specificity and cellular internalization, respectively. Hoechst 34,580 (10 µg/L, Invitrogen, CA) was added for the last 15 min of incubation to counterstain cell nuclei. Fluorescence confocal microscopy was performed on a Nikon A1Rsi confocal microscope (Nikon Corporation, Tokyo, Japan) with 60X and 100X oil immersion objectives using excitation-emission settings at 405 nm-450/40 nm (Hoechst 34,580), 488 nm-530/20 nm (GFP), and 640–660/20 nm (Cy5)."}, "[6]": {"tested_on": "5TGM1-GFP tumors in C57Bl/KaLwRij mice", "experiment": "In vivo and ex vivo NIR fluorescence imaging in the 5TGM1/KaLwRij i.v. MM model", "set-up": "species or system mouse", "protocol": "All animal studies were conducted according to protocols approved by the Washington University Animal Studies Committee. Mice were anesthetized for all treatments and imaging with 2% v/v isoflurane/100% O2. Female 1–3 month-old C57Bl/6 KaLwRij mice were injected intravenously (i.v.) with 10^6 5TGM1-GFP cells in 100 µL 1 × PBS via the lateral tail vein. Imaging studies were performed 3–4 weeks after tumor implantation. Prior to imaging, hair was removed by gentle clipping and depilatory cream to improve light transmission. Supplemental Fig. S1. […] The images were background subtracted and gated by fluorescence lifetime to minimize autofluorescence and diet-related non-specific fluorescence[65],[66].\nSupplementary Fig. 4. Mice were anesthetized for all imaging with 2% v/v isoflurane/100% O2. Female (n = 2)1–3 month old C57Bl/6 KaLwRij mice were injected with 1 × 10^6 5TGM1-GFP WT in 100 µL PBS via the lateral tail-vein. In vivo 3D fluorescence imaging in Supplemental Fig. 3A was performed on IVIS Spectrum CT (PerkinElmer, Waltham, MA) with auto-exposure settings in the GFP wavelength (Ex./Em. 480 nm/520 nm) filter pair.\nSupplementary Fig. 5. Mice were anesthetized for all imaging with 2% v/v isoflurane/100% O2. Female 1–3 month old C57Bl/6 KaLwRij mice were injected with 1 × 10^6 5TGM1-GFP WT (n = 11) or KO (n = 12) cells in 100 µL PBS via the lateral tail-vein.\n2D analysis and 3D in vivo and ex vivo reconstructions were performed using the Living Image 4.7.1 analysis software. Background fluorescence was subtracted automatically via the “Adaptive Background Subtraction” module within the Living Image 4.7.1 program. Analysis of 2D ex vivo fluorescent images was performed by measuring Total Radiant Efficiency (TRE) (photons/sec/cm^2/sr)/(μW/cm^2) from ROIs drawn around bone and muscle tissue in the GFP and Cy5 images. Tissue to muscle ratio was calculated by dividing TREs of tissue by TREs of muscle tissue of each respective mouse.\nas §4"}, "[7]": {"details": "ex vivo biodistribution 18 h after i.v. 100 µL of 25 µM LLP2A-Cy5, 5TGM1-GFP WT tumor mice, 3 weeks post inoculation, mean ± SD"}}, "note": "“Also recorded” adds a separate entry of the source."}
{"molecule": "Cc1ccccc1NC(=O)Nc1ccc(CC(=O)N[C@@H](CCCCNC(=O)/C=C/c2cccnc2)C(=O)N[C@@H](CCCC(=O)O)C(=O)NC2(C(N)=O)CCCCC2)cc1", "note": "[LLP2A-Cy5]", "values": [{"measurement": "share of patient samples in which LLP2A-Cy5 stained over 20% of CD138+CD38+ MM PCs", "setting": "[1]", "value": 68, "unit": "%"}, {"measurement": "percentage of LLP2A-Cy5+ cells", "setting": "monocytes", "value": 58.2, "unit": "%"}, {"measurement": "relative median fluorescence (RMFI)", "setting": "monocytes", "value": 3.0}, {"measurement": "% LLP2A-Cy5+", "setting": "activated VLA4 on H929", "value": 63.3, "unit": "%"}, {"measurement": "LLP2A-Cy5+ median fluorescence intensity (MFI)", "setting": "activated VLA4 on H929", "value": 3.4}, {"measurement": "% LLP2A-Cy5+", "setting": "activated VLA4 on MM1.S", "value": 22.4, "unit": "%"}, {"measurement": "LLP2A-Cy5+ median fluorescence intensity (MFI)", "setting": "activated VLA4 on MM1.S", "value": 2.1}, {"measurement": "% LLP2A-Cy5+", "setting": "activated VLA4 on 5TGM1", "value": 100, "unit": "%"}, {"measurement": "LLP2A-Cy5+ median fluorescence intensity (MFI)", "setting": "activated VLA4 on 5TGM1", "value": 23.4}, {"measurement": "% LLP2A-Cy5+", "setting": "[2]", "value": 59.5, "unit": "%"}, {"measurement": "LLP2A-Cy5+ median fluorescence intensity (MFI)", "setting": "[2]", "value": 3.2}, {"measurement": "% LLP2A-Cy5+", "setting": "activated VLA4 on U266", "value": 100, "unit": "%"}, {"measurement": "LLP2A-Cy5+ median fluorescence intensity (MFI)", "setting": "activated VLA4 on U266", "value": 16.1}, {"measurement": "% LLP2A-Cy5+", "setting": "activated VLA4 on OPM2", "value": 80.1, "unit": "%"}, {"measurement": "LLP2A-Cy5+ median fluorescence intensity (MFI)", "setting": "activated VLA4 on OPM2", "value": 4.6}, {"measurement": "binding to KO cells (flow cytometry gate)", "setting": "VLA4 KO 5TGM1-GFP cells", "value": 0.6, "unit": "%"}, {"measurement": "binding to KO cells after pre-incubation with BIO5192", "setting": "VLA4 KO 5TGM1-GFP cells", "value": 0.52, "unit": "%"}, {"measurement": "% LLP2A-Cy5+ cells in the BM", "setting": "[3]; ex vivo BM, GFP+ tumor cells (97.5% VLA4+)", "value": 84.7, "unit": "%"}, {"measurement": "% LLP2A-Cy5+ cells in the hematopoietic BM niche", "setting": "[3]; hematopoietic BM niche (63.6% VLA4+)", "value": 53.2, "unit": "%"}, {"measurement": "percentage of LLP2A-Cy5+ cells", "setting": "B-lymphocytes", "value": 23.3, "unit": "%"}, {"measurement": "relative median fluorescence (RMFI)", "setting": "B-lymphocytes", "value": 1.7}, {"measurement": "binding to WT cells (flow cytometry gate)", "setting": "[4]", "value": 100, "unit": "%"}, {"measurement": "binding to WT cells after pre-incubation with BIO5192", "setting": "[4]", "value": 0.95, "unit": "%"}, {"measurement": "percentage of LLP2A-Cy5+ cells", "setting": "T-lymphocytes", "value": 36.3, "unit": "%"}, {"measurement": "relative median fluorescence (RMFI)", "setting": "T-lymphocytes", "value": 2.2}, {"measurement": "cellular localization after extended incubation", "setting": "[5]; 1 µM, 37 °C, 2.5 h, confocal 3D z-stack", "value": "dominant cell membrane binding; also recorded: strong cell surface binding with minimal internalization"}, {"measurement": "fold reduction of cell surface binding on blocking with excess unlabeled peptide", "setting": "[5]; LLP2A-Cy5 1 µM co-incubated with 100-fold excess LLP2A-PEG4 (100 µM), 15 min, 4 °C, confocal microscopy", "value": "3.07 ± 0.3", "unit": "fold"}, {"measurement": "uptake in KO tumor foci compared with WT", "setting": "[6]; KaLwRij mice with Itga4 KO versus WT 5TGM1-GFP tumors, ex vivo fluorescence imaging 18 h after LLP2A-Cy5", "value": "significantly reduced uptake"}, {"measurement": "femur-muscle fluorescence ratio", "setting": "[6]; [7]", "value": "7.0 ± 2.5"}, {"measurement": "spleen-muscle fluorescence ratio", "setting": "[6]; [7]", "value": "2.6 ± 0.7"}, {"measurement": "time post-injection at which tumor contrast peaked", "setting": "[6]; noninvasive fluorescence imaging before, 4 and 18 h after i.v. 100 µL of 25 µM LLP2A-Cy5", "value": "~ 18 h"}]}
{"molecule": "sVCAM-1: soluble vascular cell adhesion molecule-1, natural ligand of VLA4 (protein, UniProt P19320 25-698, looked up, extracellular domain, soluble vascular cell adhesion molecule-1, natural ligand of VLA4) extracellular domain: FKIETTPESRYLAQIGDSVSLTCSTTGCESPFFSWRTQIDSPLNGKVTNEGTTSTLTMNPVSFGNEHSYLCTATCESRKLEKGIQVEIYSFPKDPEIHLSGPLEAGKPITVKCSVADVYPFDRLEIDLLKGDHLMKSQEFLEDADRKSLETKSLEVTFTPVIEDIGKVLVCRAKLHIDEMDSVPTVRQAVKELQVYISPKNTVISVNPSTKLQEGGSVTMTCSSEGLPAPEIFWSKKLDNGNLQHLSGNATLTLIAMRMEDSGIYVCEGVNLIGKNRKEVELIVQEKPFTVEISPGPRIAAQIGDSVMLTCSVMGCESPSFSWRTQIDSPLSGKVRSEGTNSTLTLSPVSFENEHSYLCTVTCGHKKLEKGIQVELYSFPRDPEIEMSGGLVNGSSVTVSCKVPSVYPLDRLEIELLKGETILENIEFLEDTDMKSLENKSLEMTFIPTIEDTGKALVCQAKLHIDDMEFEPKQRQSTQTLYVNVAPRDTTVLVSPSSILEEGSSVNMTCLSQGFPAPKILWSRQLPNGELQPLSENATLTLISTKMEDSGVYLCEGINQAGRSRKEVELIIQVTPKDIKLTAFPSESVKEGDTVIISCTCGNVPETWIILKKKAETGDTVLKSIDGAYTIRKAQLKDAGVYECESKNKVGSQLRSLTLDVQGRENNKDYFSPE", "values": [{"measurement": "binding to KO cells (flow cytometry gate)", "setting": "VLA4 KO 5TGM1-GFP cells", "value": "1.65 ± 0.07", "unit": "%"}, {"measurement": "binding to KO cells after pre-incubation with BIO5192", "setting": "VLA4 KO 5TGM1-GFP cells", "value": 2.51, "unit": "%"}, {"measurement": "binding to WT cells (flow cytometry gate)", "setting": "[4]", "value": 97.7, "unit": "%"}, {"measurement": "binding to WT cells after pre-incubation with BIO5192", "setting": "[4]", "value": 3.33, "unit": "%"}]}
